Test results taken from US6413967B1, “Inhibition of novel calcium entry pathway in electrically non-excitable cells acting as an anti-proliferative therapy” (The University of Virginia Patents Foundation, priority 1995, dated 2002).

Experiments:
[1] = system: MDA-468 human breast cancer cells; experiment: MDA-468 cell proliferation, tetrazolium dye; assay type: cell-based; design: key to MDA PROLIF: NE: no effect; ND: not determined; details: human breast cancer cell proliferation, 48 hours
Description: (§1) The effect of various drugs on the proliferation of Jurkat T cells, MDA-468 human breast cancer cells and PC3 human prostate cancer cells was determined by incubating the cells with the indicated concentrations of drug for 48 hours. The number of viable cells remaining at the end of the incubation period was evaluated using the procedure outlined in Example 4.
(§2) Cells are plated in triplicate in a 96-well flat-bottomed plate (Jurkat: 5e4 cells/well in RPMI-1640 plus 5% fbs; MDA468: 2.5e4 per well in DMEM plus 5% fbs and 11 μg/ml insulin) in the absence (control) or presence of drug at 3, 10, 30, and 100 μM. An additional control of 100 μM drug in RPMI-1640 plus 5% fbs or DMEM plus 5% fbs and 11 μg/Ml insulin with no cells is included with each run to control for possible drug interactions with the dye. The plate is then placed in a 5% CO2 37° C. incubator for 44 to 48 hours. 20 μl of dye solution containing a tetrazolium dye (3-(4,5-dimethylthiazol-2-yl)-5-(3-carboxymethoxyphenyl)-2-(4-sulfophenyl)-2H-tetrazolium, Owen's reagent) plus coupling reagent (phenazine methosulfate) is added to each well, the plate is returned to the incubator, and the absorbance at 490 nm is read using an ELISA plate reader 3 to 4 h (Jurkat cells) or 2 to 3 h (MDA-468 cells) later. All data are presented as percent of control (no drug addition). With this protocol, it is possible to determine the effect of 5 drugs at 4 concentrations in a single 96-well plate as outlined below: […]

[2] = system: [Ca^2+]i in Jurkat T cells; experiment: receptor-stimulated Ca2+ influx in Jurkat T cells (anti-CD3 mAb OKT3); assay type: cell-based, human; design: key to T cell [Ca^2+]i (pre) / T cell [Ca^2+]i: NE: no effect; ND: not determined; details: 10 or 30 μM drug; for T cell [Ca^2+]i: effect the same post- and pre- T cell receptor stimulation; for T cell [Ca^2+]i (post): drug added post T cell receptor stimulation; for T cell [Ca^2+]i (pre): drug added pre T cell receptor stimulation
Description: Initially, all drugs are screened using Jurkat T cells incubated with indo-1/AM as outlined below. In the event that there is an effect of the drug on the maximum [Ca^2+]i reached following treatment of the cells with the anti-CD3 mAb […], the drug is evaluated for any effects on the spectral characteristics of indo-1 as outlined in Haverstick and Gray, Mol. Biol. Cell (1993) 4:173. If there is an effect of the drug on the spectral characteristics of indo-1 , the drug is further examined for spectral effects on the combination of fura-red and fluo-3. If there is no effect of the drug on the fura-red/fluo-3 combination, the drug is examined for effects on the maximum [Ca^2+]i reached following OKT3 treatment of cells incubated with 5 μM fura-red and […] as outlined below.
Jurkat cells are incubated in RPMI-1640 plus 5% fbs in the presence of the acetoxymethyl ester of either indo-1 (1 μM) or the combination of fura-red (5 μM) with fluo-3 (1 μM) for one hour at 37° C. Cells are washed three times in buffer A [[…] 4-(2-hydroxyethyl)-1-piperazine ethanesulfonic acid (HEPES), pH 7.4, 3 MM KCl, 1 mM MgCl2, 1 mM CaCl2, 140 mM NaCl, 0.1% glucose] containing 1% fbs and suspended to a final concentration of 1×10^6/ml. Cells are then placed in the 37° C. jacketed cell holder of the SLM 8000C. Antigen receptor engagement is mimicked by the addition of the anti-CD3 monoclonal antibody OKT3 (Gray et al, J. Exp. Med. (1988) 167:1963; Gray et al, J. Immunol. 142:1631). The effect of drug added prior to receptor stimulation or at the plateau phase of Ca^2+ entry is determined as follows:
Prior drug: 10 or 30 μM drug @ 30 seconds, 1 μg/ml OKT3 at 90 seconds
Post drug: 1 μg/ml OKT3 at 30 second, 10 or 30 μM drug @ 120 seconds

[3] = system: VG Ca^2+ current in Jurkat cells; experiment: perforated patch clamp, voltage gated (VG) Ca2+ current; assay type: cell-based, human
Description: (§3) All recordings were performed using the perforated patch method (Horn et al, J. Gen. Physiol. (1988) 92:145) of the gigaseal patch clamp technique (Hammil et al, Pflugers Arch (1981) 391:85) with microelectrodes of 5-10 megohm series resistance. In all solutions for voltage clamp, K^+ was replaced with Cs^+ to block outward K^+ currents (Fox et al, J. Physiol. (Lond.) (1987) 392:149). The bath solution contained (in mM): NaCl, 155; CsCl, 4.5; CaCl2, 2; MgCl2, 1; D-glucose, 5; HEPES, 10 (pH 7.4 with NaOH). The pipette solution contained (in mM): CsCl, 55; Cesium methanesulfonate, 70; CaCl2, 1; MgCl2, 7; HEPES, 10 (pH 7.3 with NaOH). Nystatin was made as a stock solution of 6 mg/100 μl DMSO, and 2 μl of the stock was added to 1 ml of the pipette solution for use. Both pipette and bath solutions were 290-300 mOsm. Experiments were performed on cells at room temperature using the Axopatch-1D patch clamp (Axon Instruments, Foster City, Calif.) after correction of junction potentials and leak subtraction. Records were low-pass filtered at 500 Hz, and the data were collected, stored and analyzed using the pClamp software program (Axon Instruments). For the non-voltage gated current traces, data is presented either as the tracing from a chart recorder or from the digital data in which the current was measured at 5 second intervals and plotted as individual points.

[4] = system: NVG current in Jurkat cells; experiment: perforated patch clamp, non-voltage gated (NVG) current; assay type: cell-based, human
Description: as §3

[5] = system: [Ca^2+]i in MDA-468 cells; experiment: EGF receptor-stimulated Ca2+ influx in MDA-468 cells; assay type: cell-based, human; design: key: NE: no effect; ND: not determined; details: for MDA [CA^2+]i: effect the same post- and pre- EGF receptor stimulation
Description: MDA468 cells are incubated with either indo-1 or the combination of fura-red/fluo-3 for 1 hour while still adherent in the maintenance flask in DMEM plus 5% fbs and 1 μg/ml insulin. Cells are removed by gentle scraping and washed three times in buffer A containing 1% charcoal stripped fbs (Nelson et al, Br. J. Cancer (1991) 63:933). The cells are then suspended to a final concentration of 1e6/ml and used as above in the SLM. For the human breast cancer cells, Ca^2+ entry is stimulated by the addition of 25 ng/ml EGF, rather than the antibody used above.

[6] = system: Jurkat T cells; experiment: Jurkat cell proliferation, tetrazolium dye; assay type: cell-based, human; design: key to T cell PROLIF: NE: no effect; ND: not determined; details: 48 hours
Description: as §1, §2

| Compound | MDA PROLIF [1] | T cell [Ca^2+]i [2] | MDA [CA^2+]i [5] | T cell PROLIF [6] | further results |
| --- | --- | --- | --- | --- | --- |
| COc1cc(CCO)ccc1O [3-methoxy, 4-hydroxyphenylethanol] | NE | NE | – | – | – |
| COc1cc(C(O)C(O)CO)ccc1O (stereo not drawn) [3-methoxy, 4-hydroxyphenylglycerol] | NE | NE | – | – | – |
| [Cl][Mn][Cl] [MnCl2] | – | – | – | – | increase of the VG Ca^2+ current ([3]; 0.3 mM Mn^2+ in medium containing 2 mM Ca^2+): about 10%; effect on the VG Ca^2+ current ([3]; amiloride 100 μM, MnCl2 300 μM, NiCl2 1 mM, W-7 alone (unstimulated current)): not blocked; effect on the thapsigargin-induced NVG current ([4]; membrane potential −60 mV, 300 nM thapsigargin, amiloride 100 μM, MnCl2 300 μM, NiCl2 1 mM, W-7 30 μM, NDGA 10 μM): reversibly blocked |
| Nc1cc(-c2ccncc2)c[nH]c1=O [amrinone] | NE | NE | – | – | – |
| CC(C)COCC(CN(Cc1ccccc1)c1ccccc1)N1CCCC1 (stereo not drawn) [bepridil] | ↓ | – | ↑ | ↓ | T cell [Ca^2+]i (post) [2]: ↓ (post); T cell [Ca^2+]i (pre) [2]: NE (pre) |
| CC(NC(C)(C)C)C(=O)c1cccc(Cl)c1 (stereo not drawn) [bupropion] | NE | NE | – | NE | – |
| CN1CCN(C(c2ccccc2)c2ccc(Cl)cc2)CC1 (stereo not drawn) [chlorcyclizine] | ↓ | NE | ↑ | – | – |
| C(=C\c1ccccc1)/CN1CCN(C(c2ccccc2)c2ccccc2)CC1 [cinnarizine] | NE | ↓ | NE | ↓ | – |
| COc1cc(/C=C/C(=O)CC(=O)/C=C/c2ccc(O)c(OC)c2)ccc1O [curcumin] | NE | – | – | ↓ | – |
| CN1CCN(C(c2ccccc2)c2ccccc2)CC1 [cyclizine] | NE | NE | – | – | – |
| O=C1CN(/N=C/c2ccc(-c3ccc([N+](=O)[O-])cc3)o2)C(=O)N1 [datrolene] | NE | NE | NE | – | – |
| CCN(CC)C(=O)N1CCN(C)CC1 [diethylcarbamazine] | NE | NE | NE | NE | – |
| CC(NCCC(c1ccccc1)c1ccccc1)c1ccccc1 (stereo not drawn) [fendiline] | ↓ | ↓ | ↑ | ↓ | – |
| Fc1ccc(C(c2ccc(F)cc2)N2CCN(C/C=C/c3ccccc3)CC2)cc1 [flunarizine] | NE | ↓ | NE | ↓ | – |
| OCCN1CCN(CCCN2c3ccccc3Sc3ccc(C(F)(F)F)cc32)CC1 [fluphenazine] | ↓ | ↓ | ↓ | ↓ | – |
| OCCOCCN1CCN(C(c2ccccc2)c2ccc(Cl)cc2)CC1 (stereo not drawn) [hydroxyzine] | NE | NE | – | NE | – |
| COC(=O)C1=C(C)NC(C)=C(C(=O)OC(C)C)C1c1cccc2nonc12 (stereo not drawn) [isradipine] | NE | ↓ | – | NE | – |
| Cc1cccc(C)c1NC(=O)CN1CCN(CCCC(c2ccc(F)cc2)c2ccc(F)cc2)CC1 [lidoflazine] | (↓) | ↓ | – | ↓ | – |
| Cc1cccc(CN2CCN(C(c3ccccc3)c3ccc(Cl)cc3)CC2)c1 (stereo not drawn) [meclizine] | NE | – | – | (↓) | T cell [Ca^2+]i (post) [2]: ↓ (post); T cell [Ca^2+]i (pre) [2]: NE (pre) |
| CN1CCN2c3ccccc3Cc3ccccc3C2C1 (stereo not drawn) [mianserin] | NE | NE | – | NE | – |
| COC(=O)C1=C(C)NC(C)=C(C(=O)OCCN(C)Cc2ccccc2)C1c1cccc([N+](=O)[O-])c1 (stereo not drawn) [nicardipine] | – | – | NE | – | – |
| O=C(O)c1cccnc1Nc1cccc(C(F)(F)F)c1 [niflumic acid] | NE | – | – | (↓) | T cell [Ca^2+]i (post) [2]: ↓ (post); T cell [Ca^2+]i (pre) [2]: NE (pre) |
| C1CCC(C(CC2CCCCN2)C2CCCCC2)CC1 (stereo not drawn) [perhexiline] | ↓ | – | ↑ | ↓ | T cell [Ca^2+]i (post) [2]: ↑ (post); T cell [Ca^2+]i (pre) [2]: ↓(pre) |
| CCn1cc(C(=O)O)c(=O)c2cnc(N3CCNCC3)nc21 [pipenidic acid] | NE | NE | – | NE | – |
| c1ccc2nc(N3CCNCC3)ccc2c1 [quipazine] | NE | NE | – | – | – |
| COc1ccc2cc1Oc1ccc(cc1)C[C@H]1c3cc(c(OC)cc3CCN1C)Oc1c(OC)c(OC)cc3c1[C@H](C2)N(C)CC3 [tetrandrine, 6,6′,7,12-tetramethoxy-2,2′-dimethyl-baman] | – | – | – | – | T cell [Ca^2+]i (pre) [2]: NE (pre); MDA [CA^2+]i (pre) ([5]; drug added pre EGF receptor stimulation): NE (pre) |
| Cc1nc(C)c(C)nc1C [tetranethylpyrazine] | NE | NE | – | – | – |
| C/C=C(/C)C(=O)O[C@H]1C(C)=C2[C@H]([C@@H]1OC(=O)CCCCCCC)[C@@](C)(OC(C)=O)C[C@H](OC(=O)CCC)[C@@]1(O)[C@H]2OC(=O)[C@@]1(C)O [thapsigargin] | – | – | – | – | mean maximum VG Ca^2+ current following addition ([3]; 300 nM thapsigargin, n=10, unstimulated 18.7 pA): 30.6 pA; mean maximum magnitude of the induced NVG current ([4]; imposed membrane potential −60 mV, n=38): 3.6 pA |
| O=c1n(CCCN2CCN(c3cccc(Cl)c3)CC2)nc2ccccn12 [trazodone] | NE | NE | – | NE | – |
